Source: PubChem BioAssay AID1259407 (Chemical Carcinogenesis Research Information System (CCRIS), 2018)
The source made the active and inactive calls. How the calls were made is not given here.

Tested on: CCRIS mutagenicity, Ames/micronucleus/aberration tests
Assay: CCRIS mutagenicity studies
[1] = Test System: AMES SALMONELLA TYPHIMURIUM, Strain/Indicator: TA98, Metabolic Activation: NONE
[2] = Test System: AMES SALMONELLA TYPHIMURIUM, Strain/Indicator: TA98, Metabolic Activation: NONE, Method: STANDARD PLATE
[3] = Test System: AMES SALMONELLA TYPHIMURIUM, Strain/Indicator: TA98, Metabolic Activation: RAT, LIVER, S-9, AROCLOR 1254, Method: STANDARD PLATE
[4] = Test System: AMES SALMONELLA TYPHIMURIUM, Strain/Indicator: TA100, Metabolic Activation: NONE, Method: STANDARD PLATE
[5] = Test System: AMES SALMONELLA TYPHIMURIUM, Strain/Indicator: TA100, Metabolic Activation: RAT, LIVER, S-9, AROCLOR 1254, Method: STANDARD PLATE
[6] = Test System: AMES SALMONELLA TYPHIMURIUM, Strain/Indicator: TA1535, Metabolic Activation: NONE, Method: STANDARD PLATE
[7] = Test System: AMES SALMONELLA TYPHIMURIUM, Strain/Indicator: TA1535, Metabolic Activation: RAT, LIVER, S-9, AROCLOR 1254, Method: STANDARD PLATE
[8] = Test System: AMES SALMONELLA TYPHIMURIUM, Strain/Indicator: TA1537, Metabolic Activation: NONE, Method: STANDARD PLATE
[9] = Test System: AMES SALMONELLA TYPHIMURIUM, Strain/Indicator: TA1537, Metabolic Activation: RAT, LIVER, S-9, AROCLOR 1254, Method: STANDARD PLATE
[10] = Test System: AMES SALMONELLA TYPHIMURIUM, Strain/Indicator: TA98, Metabolic Activation: NONE, Method: PREINCUBATION

SMILES: Cc1c(C(=O)O)c(O)cc2c1C(=O)c1c(O)c([C@@H]3O[C@H](CO)[C@@H](O)[C@H](O)[C@H]3O)c(O)c(O)c1C2=O
- mutagenic call (Test System: AMES SALMONELLA TYPHIMURIUM, Strain/Indicator: TA98, Metabolic Activation: HAMSTER, LIVER, S-9, AROCLOR 1254, Method: STANDARD PLATE): inactive; negative
- mutagenic call [1]: inactive; negative
- mutagenic call [2]: inactive; negative
- mutagenic call (Test System: AMES SALMONELLA TYPHIMURIUM, Strain/Indicator: TA98, Metabolic Activation: RAT, LIVER, S-9, AROCLOR 1254 (10 OR 30%)): inactive; negative
- mutagenic call [3]: inactive; negative
- mutagenic call (Test System: AMES SALMONELLA TYPHIMURIUM, Strain/Indicator: TA100, Metabolic Activation: HAMSTER, LIVER, S-9, AROCLOR 1254, Method: STANDARD PLATE): inactive; negative
- mutagenic call (Test System: AMES SALMONELLA TYPHIMURIUM, Strain/Indicator: TA100, Metabolic Activation: NONE): inactive; negative
- mutagenic call [4]: inactive; negative
- mutagenic call (Test System: AMES SALMONELLA TYPHIMURIUM, Strain/Indicator: TA100, Metabolic Activation: RAT, LIVER, S-9, AROCLOR 1254 (10%)): inactive; negative
- mutagenic call (Test System: AMES SALMONELLA TYPHIMURIUM, Strain/Indicator: TA100, Metabolic Activation: RAT, LIVER, S-9, AROCLOR 1254 (10 OR 30%)): inactive; negative
- mutagenic call [5]: inactive; negative
- mutagenic call (Test System: AMES SALMONELLA TYPHIMURIUM, Strain/Indicator: TA1535, Metabolic Activation: HAMSTER, LIVER, S-9, AROCLOR 1254, Method: STANDARD PLATE): inactive; negative
- mutagenic call (Test System: AMES SALMONELLA TYPHIMURIUM, Strain/Indicator: TA1535, Metabolic Activation: NONE): inactive; negative
- mutagenic call [6]: inactive; negative
- mutagenic call (Test System: AMES SALMONELLA TYPHIMURIUM, Strain/Indicator: TA1535, Metabolic Activation: RAT, LIVER, S-9, AROCLOR 1254 (10 OR 30%)): inactive; negative
- mutagenic call [7]: inactive; negative
- mutagenic call (Test System: AMES SALMONELLA TYPHIMURIUM, Strain/Indicator: TA1537, Metabolic Activation: HAMSTER, LIVER, S-9, AROCLOR 1254, Method: STANDARD PLATE): inactive; negative
- mutagenic call (Test System: AMES SALMONELLA TYPHIMURIUM, Strain/Indicator: TA1537, Metabolic Activation: NONE): inactive; negative
- mutagenic call [8]: inactive; negative
- mutagenic call (Test System: AMES SALMONELLA TYPHIMURIUM, Strain/Indicator: TA1537, Metabolic Activation: RAT, LIVER, S-9, AROCLOR 1254 (10 OR 30%)): inactive; negative
- mutagenic call [9]: inactive; negative
- mutagenic call (Test System: AMES SALMONELLA TYPHIMURIUM, Strain/Indicator: TA1538, Metabolic Activation: HAMSTER, LIVER, S-9, AROCLOR 1254, Method: STANDARD PLATE): inactive; negative
- mutagenic call (Test System: AMES SALMONELLA TYPHIMURIUM, Strain/Indicator: TA1538, Metabolic Activation: NONE, Method: STANDARD PLATE): inactive; negative
- mutagenic call (Test System: AMES SALMONELLA TYPHIMURIUM, Strain/Indicator: TA1538, Metabolic Activation: RAT, LIVER, S-9, AROCLOR 1254, Method: STANDARD PLATE): inactive; negative
- mutagenic call (Test System: MOUSE LYMPHOMA, Strain/Indicator: L5178Y (TK+/TK-), Metabolic Activation: NONE, Method: SUSPENSION/PLATE): active; positive. reevaluation of results: positive
- mutagenic call (Test System: MOUSE LYMPHOMA, Strain/Indicator: L5178Y (TK+/TK-), Metabolic Activation: RAT, LIVER, S-9, AROCLOR 1254, Method: SUSPENSION/PLATE): active; positive. reevaluation of results: positive
- mutagenic call (Test System: UDS RODENT HEPATOCYTES, Strain/Indicator: THY INCORP, Metabolic Activation: NONE, Method: AUTORADIOGRAPHY): inactive; negative

SMILES: Nc1ccccc1O
- mutagenic call [1]: inactive; negative
- mutagenic call (Test System: AMES SALMONELLA TYPHIMURIUM, Strain/Indicator: TA98, Metabolic Activation: S-9): inactive; negative

SMILES: ClC1C=Cc2cc3c4c(ccc5cccc(c54)C=3)c2=C1 (configuration not stated)
- mutagenic call [10]: active; positive

SMILES: O[C@@H]1[C@@H]2O[C@@H]2c2c(ccc3nc4ccc5ccccc5c4cc23)[C@H]1O
- mutagenic call [2]: active; positive
- mutagenic call (Test System: AMES SALMONELLA TYPHIMURIUM, Strain/Indicator: TA100, Metabolic Activation: GUINEA PIG, LIVER, S-9, 3-METHYLCHOLANTHRENE, Method: STANDARD PLATE): active; positive
- mutagenic call [4]: active; positive
- mutagenic call (Test System: CHINESE HAMSTER V-79, Strain/Indicator: V-79/6-THIOGUANINE, Metabolic Activation: NONE): active; positive

SMILES: Nc1cc2c3c(cccc3c1)-c1ccccc1-2
- mutagenic call (Test System: AMES SALMONELLA TYPHIMURIUM, Strain/Indicator: TA98, Metabolic Activation: RAT, LIVER, S-9, AROCLOR 1254 (2 OR 4%), Method: STANDARD PLATE): active; positive
- mutagenic call (Test System: AMES SALMONELLA TYPHIMURIUM, Strain/Indicator: TA100, Metabolic Activation: RAT, LIVER, S-9, AROCLOR 1254 (4%), Method: STANDARD PLATE): active; positive
- mutagenic call (Test System: AMES SALMONELLA TYPHIMURIUM, Strain/Indicator: TA1535, Metabolic Activation: RAT, LIVER, S-9, AROCLOR 1254 (4%), Method: STANDARD PLATE): active; positive
- mutagenic call (Test System: AMES SALMONELLA TYPHIMURIUM, Strain/Indicator: TA1537, Metabolic Activation: RAT, LIVER, S-9, AROCLOR 1254 (4%), Method: STANDARD PLATE): active; positive

SMILES: CC(=O)OCC(COC(C)=O)OC(C)=O
- mutagenic call (Test System: Ames Salmonella typhimurium, Strain/Indicator: TA98, Metabolic Activation: None, Method: Preincubation): inactive; negative
- mutagenic call (Test System: Ames Salmonella typhimurium, Strain/Indicator: TA98, Metabolic Activation: Rat, Liver, S9, Sodium phenobarbital and 5,6-benzoflavone, Method: Preincubation): inactive; negative
- mutagenic call (Test System: Ames Salmonella typhimurium, Strain/Indicator: TA100, Metabolic Activation: None, Method: Preincubation): inactive; negative
- mutagenic call (Test System: Ames Salmonella typhimurium, Strain/Indicator: TA100, Metabolic Activation: Rat, Liver, S9, Sodium phenobarbital and 5,6-benzoflavone, Method: Preincubation): inactive; negative
- mutagenic call (Test System: Ames Salmonella typhimurium, Strain/Indicator: TA1535, Metabolic Activation: None, Method: Preincubation): inactive; negative
- mutagenic call (Test System: Ames Salmonella typhimurium, Strain/Indicator: TA1535, Metabolic Activation: Rat, Liver, S9, Sodium phenobarbital and 5,6-benzoflavone, Method: Preincubation): inactive; negative
- mutagenic call (Test System: Ames Salmonella typhimurium, Strain/Indicator: TA1537, Metabolic Activation: None, Method: Preincubation): inactive; negative
- mutagenic call (Test System: Ames Salmonella typhimurium, Strain/Indicator: TA1537, Metabolic Activation: Rat, Liver, S9, Sodium phenobarbital and 5,6-benzoflavone, Method: Preincubation): inactive; negative
- mutagenic call (Test System: E. coli, Strain/Indicator: WP2uvrA/pKM101, Metabolic Activation: None, Method: Preincubation): inactive; negative
- mutagenic call (Test System: E. coli, Strain/Indicator: WP2uvrA/pKM101, Metabolic Activation: Rat, Liver, S9, Sodium phenobarbital and 5,6-benzoflavone, Method: Preincubation): inactive; negative

SMILES: CN(C)CCCNc1c2ccccc2nc2c(N(C)C)ccc([N+](=O)[O-])c12
- mutagenic call [2]: active; positive
- mutagenic call [4]: active; positive

SMILES: CN1CCNCC1
- mutagenic call [10]: inactive; negative
- mutagenic call (Test System: AMES SALMONELLA TYPHIMURIUM, Strain/Indicator: TA98, Metabolic Activation: RAT, LIVER, S-9, PCB, Method: PREINCUBATION): inactive; negative
- mutagenic call (Test System: AMES SALMONELLA TYPHIMURIUM, Strain/Indicator: TA100, Metabolic Activation: NONE, Method: PREINCUBATION): inactive; negative
- mutagenic call (Test System: AMES SALMONELLA TYPHIMURIUM, Strain/Indicator: TA100, Metabolic Activation: RAT, LIVER, S-9, PCB, Method: PREINCUBATION): inactive; negative

SMILES: NC(=O)[C@@H]1CCCN1C(=O)[C@H](Cc1cnc[nH]1)NC(=O)[C@@H]1CCC(=O)N1
- mutagenic call [2]: inactive; negative
- mutagenic call [3]: inactive; negative
- mutagenic call [4]: inactive; negative
- mutagenic call [5]: inactive; negative
- mutagenic call [6]: inactive; negative
- mutagenic call [7]: inactive; negative
- mutagenic call [8]: inactive; negative
- mutagenic call [9]: inactive; negative
